US11351173B2, “Substituted pyrrolo[1,2-a]pyrimidines and their use in the treatment of medical disorders” (Bial—R&D Investments, S.A., priority 2014, dated 2022)
In brackets after ≈: the same amount, converted by molar mass.

Assays:
[1] = Compound solubility in water; details: water; for solubility: Compound Solubility in Water
[2] = target: T1, glucocerebrosidase (Gcase) (Homo sapiens, UniProt P04062); assay: Glucocerebrosidase (Gcase) activation assay, 4-methylumbelliferyl-beta-D-glucopyranoside substrate, fluorescence readout; assay type: biochemical; details: for activation at 0.1 µM / Percent Gcase Activation, 0.1 μM Test Compound: test compound at 0.1 μM; for activation at 0.1 µM: read-out: Percent Gcase Activation, 0.1 μM Test Compound; for activation at 1 µM / Percent Gcase Activation, 1 μM Test Compound: test compound at 1.0 μM; for activation at 1 µM: read-out: Percent Gcase Activation, 1 μM Test Compound
T1 construct: micellar solution containing 10 nM GCase and 100 nM saposin C
T1 sequence (P04062 40-536): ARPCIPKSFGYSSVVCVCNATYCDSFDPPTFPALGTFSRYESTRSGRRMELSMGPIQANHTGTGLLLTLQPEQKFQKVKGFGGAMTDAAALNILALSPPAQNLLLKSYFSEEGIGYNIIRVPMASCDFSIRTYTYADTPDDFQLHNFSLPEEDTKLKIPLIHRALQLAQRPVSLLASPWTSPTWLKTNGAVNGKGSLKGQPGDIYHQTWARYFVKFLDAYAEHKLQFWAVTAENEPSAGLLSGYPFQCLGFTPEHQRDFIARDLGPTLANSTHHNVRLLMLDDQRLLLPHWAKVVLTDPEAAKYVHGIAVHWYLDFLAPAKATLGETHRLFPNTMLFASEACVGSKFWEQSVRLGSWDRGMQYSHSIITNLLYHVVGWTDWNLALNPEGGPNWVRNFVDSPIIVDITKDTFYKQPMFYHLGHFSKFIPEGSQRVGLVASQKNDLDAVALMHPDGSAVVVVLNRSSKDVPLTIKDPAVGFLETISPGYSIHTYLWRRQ
Procedure, shortened: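 Readout is endpoint fluorescence (ex 365, em 440 nm) after glycine pH 12.5 stop of a 15-min room-temperature reaction. Enzyme mix: GCase 10 nM plus saposin C 100 nM in 0.37 mol % PS/0.32 mM triton micelles, pH 4.7, compound pre-incubated 30 min; substrate solution 2 mM before 1:1 mixing. Tested at 1.0/0.1 μM, then 3-fold, 8-point series up to 5 μM.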

| solubility [1] [µg/mL] | activation at 0.1 µM [2] [%] | activation at 1 µM [2] [%] | Compound Solubility in Water [1] [µg/mL] | solubility ([1]; in water) [µg/mL] | Percent Gcase Activation, 0.1 μM Test Compound [2] | Percent Gcase Activation, 1 μM Test Compound [2] | SMILES |
| --- | --- | --- | --- | --- | --- | --- | --- |
| 2.7 (≈ 8.15 µM) | > 20 | > 60 | – | – | – | – | Cc1cc(C)n2ccc(C(=O)NC3c4ccccc4C4CC3C4)c2n1 (centres unmarked) [III-136] |
| – | 10 to 20 | > 60 | 33.7 | – | – | – | Cc1cc(C)n2ccc(C(=O)NC3CCCC34CCCCO4)c2n1 (centres unmarked) [III-138] |
| 6.7 (≈ 19.6 µM) | 10 to 20 | > 60 | – | – | – | – | Cc1cc(C)n2ccc(C(=O)NC3CCCCC34CCCCO4)c2n1 (centres unmarked) [III-152] |
| 16.2 (≈ 50.6 µM) | < 10 | < 30 | – | – | – | – | Cc1cc(C)n2ccc(C(=O)NC3CCCc4cnccc43)c2n1 (centres unmarked) [III-151] |
| – | < 10 | < 30 | – | 3.2 (≈ 8.45 µM) | – | – | Cc1cc(C)n2ccc(C(=O)Nc3cnc(-c4ncccn4)c(Cl)c3)c2n1 [III-223] |
| – | > 20 | > 60 | – | 1.6 (≈ 4.8 µM) | – | – | Cc1cc(C)n2ccc(C(=O)NC3CCCCc4ccccc43)c2n1 (centres unmarked) [III-226] |
| – | 10 to 20 | > 60 | – | 17.1 (≈ 49.8 µM) | – | – | Cc1cc(C)n2ccc(C(=O)N[C@H]3CC[C@H](OC(C)(C)C)CC3)c2n1 [III-289] |
| 3.8 (≈ 10.2 µM) | > 20 | > 60 | – | – | – | – | Cc1cc(C)n2ccc(C(=O)NC3(C)CCOc4cc(F)c(F)cc43)c2n1 (centres unmarked) [III-174] |
| 1 (≈ 2.71 µM) | > 20 | > 60 | – | – | – | – | Cc1cc(C)n2ccc(C(=O)N[C@H]3CC[C@@H](Oc4cccs4)CC3)c2n1 [III-189] |
| 0.5 (≈ 1.4 µM) | > 20 | > 60 | – | – | – | – | CCCCCO[C@H]1CC[C@H](NC(=O)c2ccn3c(C)cc(C)nc23)CC1 [III-201] |
| – | < 10 | 30 to 60 | – | 16.7 (≈ 56.9 µM) | – | – | Cc1ccnc2c(C(=O)NC(C)(C)c3ccccc3)ccn12 [III-259] |
| – | 10 to 20 | > 60 | 2.3 | – | – | – | CCCCCO[C@@H]1CC[C@H](NC(=O)c2ccn3c(C)cc(C)nc23)C1 [III-145] |
| – | < 10 | < 30 | – | 0.6 (≈ 1.55 µM) | – | – | Cc1cc(C(F)(F)F)n2ccc(C(=O)Nc3ccc(-c4cocn4)cc3)c2n1 [III-254] |
| 16.9 (≈ 45.2 µM) | < 10 | 30 to 60 | – | – | – | – | CCCOCCO[C@H]1CC[C@H](NC(=O)c2ccn3c(C)cc(C)nc23)CC1 [III-197] |
| 10.6 (≈ 25.4 µM) | > 20 | > 60 | – | – | – | – | CCCCCO[C@H]1CC[C@H](NC(=O)c2ccn3c(COC)cc(COC)nc23)CC1 [III-154] |
| 0.1 (≈ 0.289 µM) | > 20 | > 60 | – | – | – | – | Cc1cc(C)n2ccc(C(=O)Nc3ccc(-c4ncco4)cc3C)c2n1 [III-150] |
| – | > 20 | > 60 | – | 7.1 (≈ 23.2 µM) | – | – | [2H]C1(NC(=O)c2ccn3c(C)ccnc23)CCCc2ccccc21 (centres unmarked) [III-263] |
| – | 10 to 20 | > 60 | – | 28.9 (≈ 89.9 µM) | – | – | Cc1ccnc2c(C(=O)NC3(C)CCOc4ccccc43)ccn12 (centres unmarked) [III-257] |
| – | > 20 | > 60 | – | 0.2 (≈ 0.655 µM) | – | – | Cc1cc(C)n2ccc(C(=O)N[C@@H]3CCc4ccccc43)c2n1 [III-218] |
| 4.9 (≈ 14.3 µM) | > 20 | > 60 | – | – | – | – | [2H]c1c(C([2H])([2H])[2H])nc2c(C(=O)NC3(C)CCOc4ccccc43)cc([2H])n2c1C([2H])([2H])[2H] (centres unmarked) [III-159] |

Second part, the molecule before the results:

| SMILES | solubility [1] [µg/mL] | activation at 0.1 µM [2] [%] | activation at 1 µM [2] [%] | Compound Solubility in Water [1] [µg/mL] | solubility ([1]; in water) [µg/mL] | Percent Gcase Activation, 0.1 μM Test Compound [2] | Percent Gcase Activation, 1 μM Test Compound [2] |
| --- | --- | --- | --- | --- | --- | --- | --- |
| CCCCCOC1CCC(NC(=O)c2ccn3c(C)cc(C)nc23)CC1 (centres unmarked) [III-22] | 0.5 (≈ 1.4 µM) | > 20 | > 60 | – | – | – | – |
| Cc1cc(C)n2ccc(C(=O)NC(C)(C)c3ccccc3)c2n1 [III-91] | 3 (≈ 9.76 µM) | > 20 | > 60 | – | – | – | – |
| Cc1cc(C)n2ccc(C(=O)NCC3CCC4(CCCCO4)CC3)c2n1 (centres unmarked) [III-123] | 19.4 (≈ 54.6 µM) | < 10 | > 60 | – | – | – | – |
| Cc1cc(C)n2ccc(C(=O)N[C@H]3CC[C@H](OCC4CC(F)(F)C4)CC3)c2n1 [III-95] | 3.1 (≈ 7.92 µM) | 10 to 20 | > 60 | – | – | – | – |
| CCCOC[C@H]1CC[C@H](NC(=O)c2ccn3c(C)cc(C)nc23)CC1 [III-114] | 1.3 (≈ 3.78 µM) | > 20 | > 60 | – | – | – | – |
| Cc1cc(C(F)F)nc2c(C(=O)NC3CCCc4ccccc43)ccn12 (centres unmarked) [III-29] | 0.9 (≈ 2.53 µM) | > 20 | > 60 | – | – | – | – |
| Cc1cc(C)n2ccc(C(=O)NC3CCC4(CCCCO4)CC3)c2n1 (centres unmarked) [III-112] | 30.4 (≈ 89 µM) | < 10 | – | – | – | – | – |
| CCCCO[C@H]1CC[C@H](NC(=O)c2ccn3c(C)cc(Cl)nc23)CC1 [III-65] | 8.2 (≈ 22.5 µM) | > 20 | > 60 | – | – | – | – |
| Cc1cc(C)n2ccc(C(=O)NC3CCC(F)(F)CC3)c2n1 [III-92] | 1.6 (≈ 5.21 µM) | < 10 | 30 to 60 | – | – | – | – |
| [2H]C1(NC(=O)c2ccn3c(C)cc(C)nc23)CCCc2ccccc21 (centres unmarked) [III-131] | 3.4 (≈ 10.6 µM) | > 20 | > 60 | – | – | – | – |
| Cc1cc(C)n2ccc(C(=O)Nc3ccc(-c4ncco4)cc3)c2n1 [III-7] | 0.06 (≈ 0.181 µM) | > 20 | > 60 | – | – | – | – |
| [2H]C1(NC(=O)c2ccn3c(COC)cc(C(C)C)nc23)CCOc2cc(F)c(F)cc21 (centres unmarked) [III-59] | 0.07 (≈ 0.168 µM) | 10 to 20 | > 60 | – | – | – | – |
| CNCCCCOc1ccc(NC(=O)c2ccn3c(C)cc(C)nc23)cc1 [III-20] | 20.8 (≈ 56.8 µM) | < 10 | < 30 | – | – | – | – |
| Cc1cc(C)n2ccc(C(=O)Nc3ccc(-c4ccco4)cc3)c2n1 [III-117] | – | > 20 | > 60 | 0.02 | – | – | – |
| COCc1cc(C)nc2c(C(=O)NC(C)(C)c3ccc(-c4cocn4)cc3)ccn12 [III-49] | 1.7 (≈ 4.2 µM) | > 20 | > 60 | – | – | – | – |
| Cc1cc(C)n2ccc(C(=O)NC3CCCC4(CCCCO4)C3)c2n1 (centres unmarked) [III-81] | – | – | – | 9.8 | – | * (less than 10% Gcase activation) | + (less than 30% Gcase activation) |
| Cc1cc(C)n2ccc(C(=O)Nc3ccc(-c4cocn4)cc3)c2n1 [III-1] | < 1.5 | > 20 | > 60 | – | – | – | – |
| CCCCO[C@H]1CC[C@H](NC(=O)c2ccn3c(C)cc(C(F)F)nc23)CC1 [III-67] | 4.7 (≈ 12.4 µM) | > 20 | > 60 | – | – | – | – |
| Cc1cc(C)n2ccc(C(=O)Nc3ccc(-c4cocn4)nc3)c2n1 [III-3] | < 1.5 | < 10 | 30 to 60 | – | – | – | – |
| CCCCO[C@H]1CC[C@H](NC(=O)c2ccn3c(C)cc(C)nc23)CC1 [III-26] | 18.1 (≈ 52.7 µM) | > 20 | > 60 | – | – | – | – |
| CCCO[C@H]1CC[C@H](NC(=O)c2ccn3c(C)cc(Cl)nc23)CC1 [III-74] | 10.8 (≈ 30.9 µM) | > 20 | > 60 | – | – | – | – |
| O=C(Nc1ccc(-c2cocn2)cc1)c1ccn2c(C(F)F)cc(C(F)F)nc12 [III-23] | 0.06 (≈ 0.148 µM) | > 20 | > 60 | – | – | – | – |
| Cc1cc(C)n2ccc(C(=O)Nc3ccc(-c4ccco4)cc3)c2n1 [III-9] | – | – | – | <0.1 | – | *** (greater than 20% Gcase activation) | +++ (Gcase activation greater than 60%) |
| Cc1cc(C(F)F)n2ccc(C(=O)NC3CCCc4ccccc43)c2n1 (centres unmarked) [III-28] | 0.7 (≈ 1.97 µM) | > 20 | > 60 | – | – | – | – |
| CNc1cc(C)n2ccc(C(=O)NC3c4ccccc4C4CC3C4)c2n1 (centres unmarked) [III-70] | 0.3 (≈ 0.866 µM) | > 20 | > 60 | – | – | – | – |
| Cc1cc(C)n2ccc(C(=O)Nc3ccc(-c4cccs4)nc3)c2n1 [III-8] | 0.01 (≈ 0.0287 µM) | > 20 | > 60 | – | – | – | – |
| CO[C@H]1CC[C@@H](C(C)(C)NC(=O)c2ccn3c(C)cc(Cl)nc23)CC1 [III-76] | 0.04 (≈ 0.11 µM) | > 20 | > 60 | – | – | – | – |
| Cc1cc(Cl)n2ccc(C(=O)Nc3ccc(-c4cocn4)cc3)c2n1 [III-39] | 0.7 (≈ 1.98 µM) | 10 to 20 | 30 to 60 | – | – | – | – |
| Cc1cc(C)n2ccc(C(=O)NC3CCC4(CCCCO4)C3)c2n1 (centres unmarked) [III-82] | 27.3 (≈ 83.4 µM) | 10 to 20 | – | – | – | – | +++ (Gcase activation greater than 60%) |
| COc1cc(-c2cocn2)ccc1NC(=O)c1ccn2c(C)cc(C)nc12 [III-109] | 0.1 (≈ 0.276 µM) | > 20 | > 60 | – | – | – | – |
